# Patent US9902696B2, “1,4-substituted piperidine derivatives” (Cephalon, Inc., priority 2015, dated 2018)
# Where a name gives a salt, the structure may show the parent alone.
# Molecular target: T1, recombinant human baculovirus-expressed GST-tagged FASN (Homo sapiens, UniProt P49327)
# T1 construct: GST
# Experiment: FASN enzyme activity assay, fluorescence-based detection of CoA with CPM
# Format: biochemical
# Details: 5 nM FASN, 150 μM NADPH, 10 μM acetyl-CoA, 25 μM malonyl-CoA, 90 minutes incubation; read-out: IC50 data for Additional Compounds of Formulae I-V(a): Activity
# Method in brief: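 CoA product reacted with thiol-reactive CPM (diluted to 50 μM in 70% ethanol), read at 390/530 nm after 30 min. Preceding reaction: 90 min, 5 nM recombinant GST-FASN, 150 μM NADPH, 10 μM acetyl-CoA, 25 μM malonyl-CoA, pH 7.5 HEPES, 0.5% DMSO. IC50s fitted by nonlinear sigmoidal regression.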
# T1 sequence (P49327 whole entry): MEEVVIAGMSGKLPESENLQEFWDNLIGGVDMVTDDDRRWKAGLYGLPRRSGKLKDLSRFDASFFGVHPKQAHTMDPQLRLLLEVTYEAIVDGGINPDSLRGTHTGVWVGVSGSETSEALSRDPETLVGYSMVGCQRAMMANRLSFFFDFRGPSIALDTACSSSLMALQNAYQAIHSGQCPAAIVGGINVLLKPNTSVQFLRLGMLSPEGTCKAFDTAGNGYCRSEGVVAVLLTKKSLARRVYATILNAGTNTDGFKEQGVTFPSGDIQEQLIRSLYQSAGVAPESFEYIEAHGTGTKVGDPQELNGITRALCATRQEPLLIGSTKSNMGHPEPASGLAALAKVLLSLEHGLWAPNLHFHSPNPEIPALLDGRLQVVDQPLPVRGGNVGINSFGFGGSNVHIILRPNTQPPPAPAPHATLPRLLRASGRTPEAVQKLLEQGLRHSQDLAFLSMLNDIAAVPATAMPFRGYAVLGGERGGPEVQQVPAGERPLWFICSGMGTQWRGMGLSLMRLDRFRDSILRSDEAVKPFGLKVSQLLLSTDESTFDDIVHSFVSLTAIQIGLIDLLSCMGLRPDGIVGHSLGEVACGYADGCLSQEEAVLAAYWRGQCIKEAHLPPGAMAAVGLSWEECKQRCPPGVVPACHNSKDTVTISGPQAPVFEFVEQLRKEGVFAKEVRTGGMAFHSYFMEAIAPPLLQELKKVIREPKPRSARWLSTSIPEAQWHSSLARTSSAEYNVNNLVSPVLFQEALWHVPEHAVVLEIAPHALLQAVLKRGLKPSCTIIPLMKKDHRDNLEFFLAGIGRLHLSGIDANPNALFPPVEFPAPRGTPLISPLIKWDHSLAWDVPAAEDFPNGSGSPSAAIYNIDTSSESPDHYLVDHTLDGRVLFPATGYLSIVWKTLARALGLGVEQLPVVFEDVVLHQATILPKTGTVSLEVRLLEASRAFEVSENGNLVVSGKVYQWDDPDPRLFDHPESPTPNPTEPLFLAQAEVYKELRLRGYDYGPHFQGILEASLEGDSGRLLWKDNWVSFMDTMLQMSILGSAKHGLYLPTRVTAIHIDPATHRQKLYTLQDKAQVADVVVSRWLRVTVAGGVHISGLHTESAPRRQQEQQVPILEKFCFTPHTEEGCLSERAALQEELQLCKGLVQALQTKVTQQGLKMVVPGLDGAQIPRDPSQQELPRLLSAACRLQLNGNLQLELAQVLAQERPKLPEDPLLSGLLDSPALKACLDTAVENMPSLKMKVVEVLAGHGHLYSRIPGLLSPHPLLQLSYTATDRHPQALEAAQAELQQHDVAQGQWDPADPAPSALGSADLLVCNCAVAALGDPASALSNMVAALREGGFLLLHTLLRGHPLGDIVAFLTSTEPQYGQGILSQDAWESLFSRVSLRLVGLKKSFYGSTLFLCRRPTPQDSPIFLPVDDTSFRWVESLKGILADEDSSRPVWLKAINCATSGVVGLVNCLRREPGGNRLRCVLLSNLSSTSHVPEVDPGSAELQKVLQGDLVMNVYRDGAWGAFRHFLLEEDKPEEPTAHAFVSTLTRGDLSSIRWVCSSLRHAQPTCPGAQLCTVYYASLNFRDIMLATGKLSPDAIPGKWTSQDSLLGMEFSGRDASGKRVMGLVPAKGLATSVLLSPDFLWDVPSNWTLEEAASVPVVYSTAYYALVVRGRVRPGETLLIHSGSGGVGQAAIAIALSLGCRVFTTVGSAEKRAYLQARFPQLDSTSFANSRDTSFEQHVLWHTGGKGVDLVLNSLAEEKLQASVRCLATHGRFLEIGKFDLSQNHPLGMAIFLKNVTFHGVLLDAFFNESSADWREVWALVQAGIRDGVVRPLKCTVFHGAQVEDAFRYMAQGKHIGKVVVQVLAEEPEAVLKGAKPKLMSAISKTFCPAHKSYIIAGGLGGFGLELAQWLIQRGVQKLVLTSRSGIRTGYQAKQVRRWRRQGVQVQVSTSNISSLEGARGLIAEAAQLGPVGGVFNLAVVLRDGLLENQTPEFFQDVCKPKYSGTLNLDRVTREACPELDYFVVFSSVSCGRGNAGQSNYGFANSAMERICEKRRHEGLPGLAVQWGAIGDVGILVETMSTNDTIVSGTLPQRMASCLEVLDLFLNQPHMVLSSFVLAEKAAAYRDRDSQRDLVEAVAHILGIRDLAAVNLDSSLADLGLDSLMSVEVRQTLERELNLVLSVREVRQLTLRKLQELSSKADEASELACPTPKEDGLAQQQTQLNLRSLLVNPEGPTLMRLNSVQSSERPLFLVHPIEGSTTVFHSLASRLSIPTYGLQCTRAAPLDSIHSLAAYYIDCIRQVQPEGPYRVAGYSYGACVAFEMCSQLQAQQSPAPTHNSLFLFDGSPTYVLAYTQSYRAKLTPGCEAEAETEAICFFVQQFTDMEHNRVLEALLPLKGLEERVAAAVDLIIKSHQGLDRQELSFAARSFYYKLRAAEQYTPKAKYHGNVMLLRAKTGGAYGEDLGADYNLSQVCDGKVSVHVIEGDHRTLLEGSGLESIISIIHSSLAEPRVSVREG
row,IC50 [nM],SMILES
1,1000 to 10000,"Cc1c(-c2ccc(OC3CCN(C(=O)NCC(C)C)CC3)cc2)ccc2nccn12 [Example 593, N-Isobutyl-4-[4-(5-methylimidazo[1,2-a]pyridin-6-yl)phenoxy]piperidine-1-carboxamide]"
2,1000 to 10000,"Cc1c(-c2ccc(OC3CCN(C(=O)N(C)C)CC3)cc2)ccc2nccn12 [Example 599, N,N-Dimethyl-4-[4-(5-methylimidazo[1,2-a]pyridin-6-yl)phenoxy]piperidine-1-carboxamide]"
3,100 to 999,"Cc1c(-c2ccc(OC3CCN(C(=O)NOC(C)C)CC3)cc2)ccc2nccn12 [Example 600, N-Isopropoxy-4-[4-(5-methylimidazo[1,2-a]pyridin-6-yl)phenoxy]piperidine-1-carboxamide]"
4,1000 to 10000,"Cc1c(-c2ccc(OC3CCN(C(=O)OCC(C)C)CC3)cc2)ccc2nccn12 [Example 602, Isobutyl 4-[4-(5-methylimidazo[1,2-a]pyridin-6-yl)phenoxy]piperidine-1-carboxylate]"
5,1000 to 10000,"Cc1c(-c2ccc(OC3CCN(C(=O)NC(C)C)CC3)cc2)ccc2nccn12 [Example 603, N-Isopropyl-4-[4-(5-methylimidazo[1,2-a]pyridin-6-yl)phenoxy]piperidine-1-carboxamide]"
6,1 to 99,"Cc1c(-c2ccc(OC3CCN(C(=O)CN)CC3)cc2)ccc2cccnc12 [Example 609, 2-Amino-1-[4-[4-(8-methyl-7-quinolyl)phenoxy]-1-piperidyl]ethanone, 2HCl]"
7,1000 to 10000,"Cc1c(-c2ccc(OC3CCN(C(=O)[C@@H](C)N)CC3)cc2)ccc2cccnc12 [Example 610, (2R)-2-Amino-1-[4-[4-(8-methyl-7-quinolyl)phenoxy]-1-piperidyl]propan-1-one, 2HCl]"
8,1 to 99,"Cc1c(-c2ccc(OC3CCN(C(=O)[C@H](C)N)CC3)cc2)ccc2cccnc12 [Example 612, (2S)-2-Amino-1-[4-[4-(8-methyl-7-quinolyl)phenoxy]-1-piperidyl]propan-1-one 2HCl]"
9,1000 to 10000,"Cc1c(-c2ccc(OC3CCN(C(=O)CN(C)C)CC3)cc2)ccc2cccnc12 [Example 614, 2-(Dimethylamino)-1-[4-[4-(8-methyl-7-quinolyl)phenoxy]-1-piperidyl]-ethanone]"
10,1000 to 10000,"Cc1c(-c2ccc(OC3CCN(C(=O)[C@H]4CCCN4C)CC3)cc2)ccc2cccnc12 [Example 616, [(2R)-1-Methylpyrrolidin-2-yl]-[4-[4-(8-methyl-7-quinolyl)phenoxy]-1-piperidyl]methanone]"
11,1000 to 10000,"Cc1c(-c2ccc(OC3CCN(C(=O)[C@@H]4CCCN4C)CC3)cc2)ccc2cccnc12 [Example 617, [(2S)-1-Methylpyrrolidin-2-yl]-[4-[4-(8-methyl-7-quinolyl)phenoxy]-1-piperidyl]methanone]"
12,1000 to 10000,"Cc1c(-c2ccc(OC3CCN(C(=O)SC(C)C)CC3)cc2)ccc2cccnc12 [Example 618, S-Isopropyl 4-[4-(8-methyl-7-quinolyl)phenoxy]piperidine-1-carbothioate]"
13,1000 to 10000,"Cc1c(-c2ccc(OC3CCN(C(=O)C(C)(C)N)CC3)cc2)ccc2cccnc12 [Example 619, 2-Amino-2-methyl-1-[4-[4-(8-methyl-7-quinolyl)phenoxy]-1-piperidyl]propan-1-one]"
14,1000 to 10000,"Cc1c(-c2ccc(OC3CCN(C(=O)[C@H]4CCCN4)CC3)cc2)ccc2cccnc12 [Example 620, [4-[4-(8-Methyl-7-quinolyl)phenoxy]-1-piperidyl]-[(2R)-pyrrolidin-2-yl]methanone]"
15,1000 to 10000,"Cc1c(-c2ccc(OC3CCN(C(=O)[C@@H]4CCCN4)CC3)cc2)ccc2cccnc12 [Example 621, [4-[4-(8-Methyl-7-quinolyl)phenoxy]-1-piperidyl]-[(2S)-pyrrolidin-2-yl]-methanone]"
16,1000 to 10000,"CNC1(C(=O)N2CCC(Oc3ccc(-c4ccc5cccnc5c4C)cc3)CC2)CC1 [Example 622, [1-(Methylamino)cyclopropyl]-[4-[4-(8-methyl-7-quinolyl)phenoxy]-1-piperidyl]methanone]"
17,1000 to 10000,"Cc1c(-c2ccc(OC3CCN(C(=O)CCN)CC3)cc2)ccc2cccnc12 [Example 623, 3-Amino-1-[4-[4-(8-methyl-7-quinolyl)phenoxy]-1-piperidyl]propan-1-one, 2HCl]"
18,1000 to 10000,"Cc1c(-c2ccc(OC3CCN(C(=O)COC(C)C)CC3)cc2)ccc2cccnc12 [Example 624, 2-Isopropoxy-1-[4-[4-(8-methyl-7-quinolyl)phenoxy]-1-piperidyl]ethanone, HCl]"
19,1 to 99,"CC(=O)OCC(=O)N1CCC(Oc2ccc(-c3ccc4cccnc4c3C)cc2)CC1 [Example 625, [2-[4-[4-(8-Methyl-7-quinolyl)phenoxy]-1-piperidyl]-2-oxo-ethyl]acetate]"
20,1 to 99,"Cc1c(-c2ccc(OC3CCN(C(=O)CO)CC3)cc2)ccc2cccnc12 [Example 626, 2-Hydroxy-1-[4-[4-(8-methyl-7-quinolyl)phenoxy]-1-piperidyl]ethanone]"
21,1000 to 10000,"Cc1c(-c2ccc(OC3CCN(C(=O)C4(N)CCC4)CC3)cc2)ccc2cccnc12 [Example 627, (1-Aminocyclobutyl)-[4-[4-(8-methyl-7-quinolyl)phenoxy]-1-piperidyl]-methanone]"
22,100 to 999,"Cc1c(-c2ccc(OC3CCN(C(=O)NOC(C)C)CC3)cc2)ccn2ccnc12 [Example 630, N-Isopropoxy-4-[4-(8-methylimidazo[1,2-a]pyridin-7-yl)phenoxy]piperidine-1-carboxamide, HCl]"

# Further lines, the molecule ahead of its results:
row,SMILES,IC50 [nM]
1,"CCNC(=O)N1CCC(Oc2ccc(-c3ccc4nccn4c3C)cc2)CC1 [Example 592, N-Ethyl-4-[4-(5-methylimidazo[1,2-a]pyridin-6-yl)phenoxy]piperidine-1-carboxamide]",1 to 99
2,"CCCNC(=O)N1CCC(Oc2ccc(-c3ccc4nccn4c3C)cc2)CC1 [Example 594, 4-[4-(5-Methylimidazo[1,2-a]pyridin-6-yl)phenoxy]-N-propyl-piperidine-1-carboxamide]",1 to 99
3,"Cc1c(-c2ccc(OC3CCN(C(=O)NCC4CC4)CC3)cc2)ccc2nccn12 [Example 595, N-(Cyclopropylmethyl)-4-[4-(5-methylimidazo[1,2-a]pyridin-6-yl)-phenoxy]piperidine-1-carboxamide]",100 to 999
4,"Cc1c(-c2ccc(OC3CCN(C(=O)Nc4cccnc4)CC3)cc2)ccc2nccn12 [Example 596, 4-[4-(5-Methylimidazo[1,2-a]pyridin-6-yl)phenoxy]-N-(3-pyridyl)piperidine-1-carboxamide]",1 to 99
5,"COCCNC(=O)N1CCC(Oc2ccc(-c3ccc4nccn4c3C)cc2)CC1 [Example 597, N-(2-Methoxyethyl)-4-[4-(5-methylimidazo[1,2-a]pyridin-6-yl)phenoxy]-piperidine-1-carboxamide]",1000 to 10000
6,"Cc1c(-c2ccc(OC3CCN(C(=O)N4CCN(C)CC4)CC3)cc2)ccc2nccn12 [Example 598, [4-[4-(5-Methylimidazo[1,2-a]pyridin-6-yl)phenoxy]-1-piperidyl]-(4-methylpiperazin-1-yl)methanone]",100 to 999
7,"Cc1c(-c2ccc(OC3CCN(C(=O)NOCC(C)C)CC3)cc2)ccc2nccn12 [Example 601, N-Isobutoxy-4-[4-(5-methylimidazo[1,2-a]pyridin-6-yl)phenoxy]piperidine-1-carboxamide]",1 to 99
8,"Cc1c(-c2ccc(OC3CCN(C(=O)Nc4cnn(C)c4)CC3)cc2)ccc2nccn12 [Example 604, 4-[4-(5-Methylimidazo[1,2-a]pyridin-6-yl)phenoxy]-N-(1-methylpyrazol-4-yl)piperidine-1-carboxamide]",1000 to 10000
9,"Cc1c(-c2ccc(OC3CCN(C(=O)OC(C)(C)C)CC3)cc2)ccc2nccn12 [Example 605, tert-Butyl 4-[4-(5-methylimidazo[1,2-a]pyridin-6-yl)phenoxy]piperidine-1-carboxylate]",1000 to 10000
10,"Cc1c(-c2ccc(OC3CCN(C(=O)NCC(F)(F)F)CC3)cc2)ccc2nccn12 [Example 606, 4-[4-(5-Methylimidazo[1,2-a]pyridin-6-yl)phenoxy]-N-(2,2,2-trifluoro-ethyl)piperidine-1-carboxamide]",1000 to 10000
11,"CCCONC(=O)N1CCC(Oc2ccc(-c3ccc4nccn4c3C)cc2)CC1 [Example 607, 4-[4-(5-Methylimidazo[1,2-a]pyridin-6-yl)phenoxy]-N-propoxy-piperidine-1-carboxamide]",1000 to 10000
12,"CCONC(=O)N1CCC(Oc2ccc(-c3ccc4nccn4c3C)cc2)CC1 [Example 608, N-Ethoxy-4-[4-(5-methylimidazo[1,2-a]pyridin-6-yl)phenoxy]piperidine-1-carboxamide]",100 to 999
13,"CONC(=O)N1CCC(Oc2ccc(-c3ccc4nccn4c3C)cc2)CC1 [Example 611, N-Methoxy-4-[4-(5-methylimidazo[1,2-a]pyridin-6-yl)phenoxy]piperidine-1-carboxamide]",1000 to 10000
14,"Cc1c(-c2ccc(OC3CCN(C(=O)NO)CC3)cc2)ccc2nccn12 [Example 613, 4-[4-(5-Methylimidazo[1,2-a]pyridin-6-yl)phenoxy]piperidine-1-carbohydroxamic acid]",1000 to 10000
15,"Cc1c(-c2ccc(OC3CCN(C(N)=O)CC3)cc2)ccc2nccn12 [Example 615, 4-[4-(5-Methylimidazo[1,2-a]pyridin-6-yl)phenoxy]piperidine-1-carboxamide]",1000 to 10000
16,"CCNC(=O)N1CCC(Oc2ccc(-c3ccn4ccnc4c3)cc2)CC1 [Example 628, N-Ethyl-4-(4-imidazo[1,2-a]pyridin-7-ylphenoxy)piperidine-1-carboxamide, HCl]",1 to 99
17,"CCNC(=O)N1CCC(Oc2ccc(-c3ccn4ccnc4c3C)cc2)CC1 [Example 629, N-Ethyl-4-[4-(8-methylimidazo[1,2-a]pyridin-7-yl)phenoxy]piperidine-1-carboxamide, HCl]",1000 to 10000
